Measured values reported in patent publication US20250041280A1, “USE OF HETEROCYCLIC COMPOUNDS IN ALLEVIATING ADVERSE REACTIONS CAUSED BY CHEMOTHERAPEUTIC DRUGS” (TSINGHUA UNIVERSITY, priority 2021, published 2025).

Columns and labels:
[1] = test system: small intestinal organoids in mice; assay: Protection of ISX on injury of mouse small intestinal organoids caused by 5-FU, immunofluorescence staining (cleaved caspase-3); conditions: 5-FU 50 uM alone, 4 hours of treatment; FIG. 1
Excerpt: (§1) 1. Isolation of Crypts and Culture of Organoids
(§2) 3. Immunofluorescence of Organoids

[2] = test system: small intestinal organoids in mice; assay: Protection of ISX on injury of mouse small intestinal organoids caused by 5-FU, bright field and live cells/dead cells double staining; type: cell-based; conditions: then 4 days of culture
Excerpt: as §1

human colon organoids = assay: Protection of ISX on human colon organoids, bright field and live cells/dead cells double staining; conditions: 5-FU 20 uM alone
Excerpt: Calcein-AM/PI Live Cells/Dead Cells Double Staining Assay
Calcein-AM can permeate the cell membrane, and the esterase in living cells can remove its AM group to produce calcein and emit fluorescence. PI (propidium iodide) cannot pass through the intact cell membrane, and only after the cell membrane is damaged and the permeability changes, PI can enter the cell to combine with DNA and emit fluorescence. Therefore, Calcein-AM/PI can be a label for distinguishing the live or dead cells.
Colon tissues were isolated from normal human tissue to perform organoid culture, after the culture was stable, performing subculture to continue the culture for 3-5 days. The culture was dividing into 4 groups: a control group of adding DMSO alone (DMSO group); a group of adding chemotherapy drug 5-fluorouracil (5-FU, 20 uM) alone (5-FU group); a group of adding ISX (10 uM) alone (ISX group); and a group of adding 5-FU (50 uM) and ISX (25 uM) simultaneously (5-FU+ISX group).
The signal generated by PI in the fluorescence image represents dead cells, and the signal generated by Calcein-AM represents living cells.

[3] = test system: small intestinal organoids in mice; assay: Comparative experiment on the protective effects of PD332991, CHIR99021 and ISX on intestinal organoids; conditions: then 4 days of culture, FIG. 13
Excerpt: as §1
In this example, PD0332991 and CHIR99021 were used as reference compounds to evaluate the protective effect of the compounds of the present application on intestinal organoids.
After treatment, all compound treatments were terminated, and the organoids were washed 3 times with PBS, then culturing in fresh medium.

[4] = test system: small intestinal organoids in mice; assay: Protection of ISX on injury of mouse small intestinal organoids caused by etoposide, bright field and live cells/dead cells double staining; type: cell-based; conditions: then 4 days of culture
Excerpt: as §1

[5] = test system: small intestinal organoids in mice; assay: Protection of ISX on injury of mouse small intestinal organoids caused by etoposide, immunofluorescence staining; type: cell-based; conditions: etoposide 50 uM + ISX 25 uM, 4 hours of treatment; FIG. 4
Excerpt: as §1, §2

[6] = test system: small intestinal organoids in mice; assay: Protection of ISX on injury of mouse small intestinal organoids caused by etoposide, Western blotting; type: cell-based; conditions: etoposide 50 uM + ISX 25 uM, 4 hours of treatment; FIG. 5
Protocol: as §1
5. Western Blotting Assay
After 4 hours of treatment, 4 groups of samples were collected for Western blotting assay.

intestinal tract of mice = assay: Protective effect of ISX on the intestinal tract of mice, TUNEL assay; type: in vivo; conditions: etoposide 20 mg/kg intraperitoneally, ISX 20 mg/kg orally
Protocol: 6-8 week-old wild-type B6 mice were randomly divided into two groups. One group was intraperitoneally injected with chemotherapeutic drug etoposide (20 mg/kg), and then orally administered a cosolvent (5% DMSO+0.5% Tween 80+0.5% CMC-Na) (5 mL/kg); another group was intraperitoneally injected with chemotherapeutic drug etoposide (20 mg/kg), and then orally administered ISX dissolved in a cosolvent (20 mg/kg). The mice were sacrificed 3 hours later, and the intestinal tissues were fixed, followed by TUNEL staining assay.

[7] = 5-FU 50 uM + ISX 25 uM, 8 hours of treatment, FIG. 2
[8] = etoposide 50 uM + ISX 25 uM, 8 hours of treatment, FIG. 6

O=c1[nH]cc(F)c(=O)[nH]1 [5-FU, 5-fluorouracil]
dead cells (cleaved caspase-3 signal), 5-FU group vs DMSO group [1]: significantly higher | biomass (bright field), 5-FU group compared with DMSO group ([2]; 5-FU 50 uM alone, 8 hours of treatment, FIG. 2): significantly reduced | number of crypt structures, 5-FU group vs DMSO group (human colon organoids; 48 hours of treatment, p<0.01, FIGS. 8-9): significantly reduced | dead cells (PI), 5-FU group compared with DMSO group (human colon organoids; culture until day 5, FIG. 10): increased significantly

Cc1c[nH]c(-c2cnc(NCCNc3ccc(C#N)cn3)nc2-c2ccc(Cl)cc2Cl)n1 [CHIR99021]
protection of small intestinal organoids against 5-FU (live cells/dead cells double staining) ([3]; 5-FU 25 uM + CHIR99021 10 uM): cannot protect small intestinal organoids

COc1cc([C@@H]2c3cc4c(cc3[C@@H](O[C@@H]3O[C@@H]5CO[C@@H](C)O[C@H]5[C@H](O)[C@H]3O)[C@H]3COC(=O)[C@H]23)OCO4)cc(OC)c1O [Eto, etoposide, reference compound]
biomass (bright field), Eto group compared with DMSO group ([4]; etoposide 50 uM alone, 8 hours of treatment, FIG. 6): significantly reduced

O=C(NC1CC1)c1cc(-c2cccs2)on1 [ISX]
biomass (bright field), 5-FU+ISX group compared with the 5-FU group [2, 7]: significantly increased | number of living cells (Calcein-AM), 5-FU+ISX group vs 5-FU group [2, 7]: significantly more | number of surviving crypt structures in each organoid, 5-FU+ISX group vs 5-FU group ([2]; 5-FU 50 uM + ISX 25 uM, 8 hours, p<0.01, FIG. 3): significant difference | cell death (cleaved caspase-3 signal) caused by etoposide [5]: significantly reduce the cell death | cell death caused by etoposide (Western blotting) [6]: significantly reduce the cell death | biomass (bright field), Eto+ISX group compared with the Eto group [4, 8]: significantly increased | number of living cells (Calcein-AM), Eto+ISX group vs Eto group [4, 8]: significantly more | number of surviving crypt structures in each organoid, Eto+ISX group vs Eto group ([4]; etoposide 50 uM + ISX 25 uM, 8 hours, p<0.01, FIG. 7): significant difference | number of TUNEL signals in each crypt, ISX group vs cosolvent group (intestinal tract of mice; 3 hours, p<0.01, FIG. 12): significant difference | TUNEL signal, orally administered ISX group vs cosolvent group (intestinal tract of mice; sacrificed 3 hours later, FIG. 11): significantly lower

CC(=O)c1c(C)c2cnc(Nc3ccc(N4CCNCC4)cn3)nc2n(C2CCCC2)c1=O [PD332991]
protection of small intestinal organoids against 5-FU (live cells/dead cells double staining) ([3]; 5-FU 25 uM + PD0332991 100 nM): cannot protect small intestinal organoids
